Experimental findings from the supplement of paper PMC10307832 are described below.

Holding throughout (assay): relative viability (nuclei count vs DMSO), 5 days (fraction); higher = more cells survive
Compound in assay [1]: CCn1c(-c2nonc2N)nc2cnc(Oc3cccc(NC(=O)c4ccc(OCCN5CCOCC5)cc4)c3)cc21 + CC(=O)Nc1cccc(-n2c(=O)n(C3CC3)c(=O)c3c(Nc4ccc(I)cc4F)n(C)c(=O)c(C)c32)c1 [Trametinib] (partner 0.02 µM)
The gist of the method:
(§1)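 The day after seeding in 1536-well plates, lung cancer cell lines were treated by pin tool with a single drug, or with a fixed anchor-drug dose together with five library-drug doses (not always all listed) in √10 steps. After 5 days, a combined fix-and-stain solution (final 0.05% Triton X-100, 1% formaldehyde, 1 ug/ml Hoechst) was added. Nuclei counted on 4× images gave relative viability as treated counts over vehicle counts, reported as the median of duplicate plates.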

Compound in the assay “Mirin + Olaparib”: N=C1NC(=O)/C(=C/c2ccc(O)cc2)S1 [Mirin] + O=C(c1cc(Cc2n[nH]c(=O)c3ccccc23)ccc1F)N1CCN(C(=O)C2CC2)CC1 [Olaparib] (partner 8 µM)
The method in brief:
as §1

Compound in assay [2]: CCC1=CN=CN=C1N2CCN(CC2)CC3=NC4=C(N3)C=C(C=C4)C(F)(F)F + CC(=O)Nc1cccc(-n2c(=O)n(C3CC3)c(=O)c3c(Nc4ccc(I)cc4F)n(C)c(=O)c(C)c32)c1 [Trametinib] (partner 0.02 µM)
The method in brief: as §1

Compound in the assay “Mirin + AZD7762”: N=C1NC(=O)/C(=C/c2ccc(O)cc2)S1 [Mirin] + NC(=O)Nc1cc(-c2cccc(F)c2)sc1C(=O)N[C@H]1CCCNC1 [AZD7762] (partner 0.2 µM)
The method in brief: as §1

As to NCI-H1993, the relative viability in assay [1] (first compound 0.04 µM) came out at 0.441; in assay [1] (first compound 0.1265 µM), 0.427; in assay [1] (first compound 0.4 µM), 0.464; in assay [1] (first compound 1.265 µM) it was 0.439; in assay [1] (first compound 4 µM) it was 0.509; with Mirin + Olaparib (first compound 0.25 µM), 1.07. The relative viability was found to be 1.07 with Mirin + Olaparib (first compound 0.7906 µM); 1.12 with Mirin + Olaparib (first compound 2.5 µM); 0.932 with Mirin + Olaparib (first compound 7.906 µM); 0.962 with Mirin + Olaparib (first compound 25 µM); 0.493 in assay [2] (first compound 0.04 µM); 0.658 in assay [2] (first compound 0.1265 µM). Besides, the relative viability in assay [2] (first compound 0.4 µM) was 0.552; in assay [2] (first compound 1.265 µM) it was 0.549; in assay [2] (first compound 4 µM) it was 0.644; with Mirin + AZD7762 (first compound 0.25 µM) it was 0.897; in the assay with Mirin + AZD7762 (first compound 0.7906 µM), 0.628; with Mirin + AZD7762 (first compound 2.5 µM) it was 0.679. Further, the relative viability worked out at 0.808 in the assay with Mirin + AZD7762 (first compound 7.906 µM) and 0.971 in the assay with Mirin + AZD7762 (first compound 25 µM).
For NCI-H2085, the relative viability in assay [1] (first compound 0.04 µM) came out at 0.634; in assay [1] (first compound 0.1265 µM) it was 0.57; in assay [1] (first compound 0.4 µM), 0.521; in assay [1] (first compound 1.265 µM), 0.574; in assay [1] (first compound 4 µM), 0.535; with Mirin + Olaparib (first compound 0.25 µM), 0.773. In addition, the relative viability with Mirin + Olaparib (first compound 0.7906 µM) came out at 0.752; with Mirin + Olaparib (first compound 2.5 µM), 0.773; in the assay with Mirin + Olaparib (first compound 7.906 µM), 0.949; in the assay with Mirin + Olaparib (first compound 25 µM), 0.808; in assay [2] (first compound 0.04 µM) it was 0.456; in assay [2] (first compound 0.1265 µM), 0.369. Moreover, the relative viability in assay [2] (first compound 0.4 µM) was found to be 0.401; in assay [2] (first compound 1.265 µM), 0.43; in assay [2] (first compound 4 µM) it was 0.491; in the assay with Mirin + AZD7762 (first compound 0.25 µM), 0.929; with Mirin + AZD7762 (first compound 0.7906 µM), 1.11; in the assay with Mirin + AZD7762 (first compound 2.5 µM), 0.979. Besides, the relative viability in the assay with Mirin + AZD7762 (first compound 7.906 µM) was 1.02; with Mirin + AZD7762 (first compound 25 µM), 0.883.
NCI-H2087: the relative viability turned out to be 0.209 in assay [1] (first compound 0.04 µM); 0.293 in assay [1] (first compound 0.1265 µM); 0.203 in assay [1] (first compound 0.4 µM); 0.228 in assay [1] (first compound 1.265 µM); 0.231 in assay [1] (first compound 4 µM); 0.602 in the assay with Mirin + Olaparib (first compound 0.25 µM). In addition, the relative viability with Mirin + Olaparib (first compound 0.7906 µM) was 0.559; with Mirin + Olaparib (first compound 2.5 µM), 0.611; in the assay with Mirin + Olaparib (first compound 7.906 µM), 0.671; in the assay with Mirin + Olaparib (first compound 25 µM) it was 0.498; in assay [2] (first compound 0.04 µM), 0.172; in assay [2] (first compound 0.1265 µM) it was 0.226. Moreover, the relative viability in assay [2] (first compound 0.4 µM) came out at 0.244; in assay [2] (first compound 1.265 µM) it was 0.215; in assay [2] (first compound 4 µM), 0.189; with Mirin + AZD7762 (first compound 0.25 µM) it was 1.31; in the assay with Mirin + AZD7762 (first compound 0.7906 µM), 1.59; in the assay with Mirin + AZD7762 (first compound 2.5 µM) it was 1.45. For the same cell line, the relative viability with Mirin + AZD7762 (first compound 7.906 µM) is 1.3; with Mirin + AZD7762 (first compound 25 µM) it was 1.75.
As for NCI-H2126, the relative viability is 0.61 in assay [1] (first compound 0.04 µM); 0.594 in assay [1] (first compound 0.1265 µM); 0.562 in assay [1] (first compound 0.4 µM); 0.583 in assay [1] (first compound 1.265 µM); 0.57 in assay [1] (first compound 4 µM); 0.929 in the assay with Mirin + Olaparib (first compound 0.25 µM). For the same cell line, the relative viability turned out to be 0.925 with Mirin + Olaparib (first compound 0.7906 µM); 0.951 with Mirin + Olaparib (first compound 2.5 µM); 0.947 with Mirin + Olaparib (first compound 7.906 µM); 0.959 with Mirin + Olaparib (first compound 25 µM); 0.601 in assay [2] (first compound 0.04 µM); 0.546 in assay [2] (first compound 0.1265 µM). Further, the relative viability in assay [2] (first compound 0.4 µM) was found to be 0.565; in assay [2] (first compound 1.265 µM), 0.536; in assay [2] (first compound 4 µM), 0.513; in the assay with Mirin + AZD7762 (first compound 0.25 µM), 1.11; in the assay with Mirin + AZD7762 (first compound 0.7906 µM) it was 1.03; with Mirin + AZD7762 (first compound 2.5 µM) it was 1.05. The relative viability is 1.11 with Mirin + AZD7762 (first compound 7.906 µM) and 0.951 in the assay with Mirin + AZD7762 (first compound 25 µM).
